According to paper PMC11129182, “Development of Inhibitors, Probes, and PROTAC Provides a Complete Toolbox to Study PARK7 in the Living Cell” (Journal of Medicinal Chemistry, 2024):
Read-outs that look alike come from different tables or passages of the source. Residues, ends and D or L forms follow the SMILES beside them. *: point of attachment. Cbz = O=C(OCc1ccccc1)*

How the values were obtained:
PARK7 [1] = target: T1, PARK7 (Homo sapiens, UniProt Q99497); assay: Activity evaluation of PROTACs in cells (PARK7 degradation, immunoblot); conditions: A549 cells; for effect of pretreatment on JYQ-194-induced PARK7 degradation: pretreatment 4 h (5 μM pomalidomide, 5 μM JYQ-173 or 10 μM MG-132), then JYQ-194 5 μM 8 h
T1 sequence (Q99497 1-189): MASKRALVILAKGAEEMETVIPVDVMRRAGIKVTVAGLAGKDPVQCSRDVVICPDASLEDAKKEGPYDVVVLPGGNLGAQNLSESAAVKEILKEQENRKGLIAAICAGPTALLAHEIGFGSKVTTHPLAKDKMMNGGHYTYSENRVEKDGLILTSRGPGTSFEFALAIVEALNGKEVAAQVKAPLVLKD
Protocol: A549 cells were seeded into 6-well plates. The next day after seeding, cells were incubated with the indicated concentrations of indicated PROTACs for 8 h. The cells were then washed with PBS and collected. The collected cell pellets were lysed with Tris-triton buffer as described above. The prepared cell lysate of each sample (10 μL) was added 5 μL 3× LDS + 5% β-mercaptoethanol, and boiled for 10 min.

PARK7 [2] = target: T1, PARK7; assay: High-throughput screen of the crude compound library, PARK7 fluorescence polarization (FP) assay with FP reagent JYQ-107; format: biochemical; conditions: for inhibition at 1.25 µM: crude compound library, read-out: HTS FP assay %Inhibition (1.25 µM)
PARK7 [3] = target: T1, PARK7; assay: Hit validation and pure-compound testing in the PARK7 FP assay with JYQ-107; format: biochemical; conditions: for inhibition at 0.25 µM: read-out: % Inhibition 0.25 µM
[4] = crude compounds, 0.5 µM, read-out: % Inhibition 0.5 µM

Row | inhibition at 1.25 µM (PARK7 [2]) | inhibition at 0.25 µM (PARK7 [3]; crude compounds, 0.25 µM) | inhibition at 0.5 µM (PARK7 [3]; [4]) | inhibition at 1 µM (PARK7 [3]; crude compounds) | SMILES | further results
1 | 92.1% | 34.1% | 62.9% | 89.5% | N#CN1CC[C@@H](C(=O)Nc2nc3c(s2)CN(C(=O)c2cccc(Oc4ccc(Cl)cc4)n2)CC3)C1 [Compound 312] | 
2 | 90% | 44% | 66.5% | 91.2% | Cc1c[nH]c(=O)n1-c1cccc(C(=O)N2CCc3nc(NC(=O)[C@@H]4CCN(C#N)C4)sc3C2)c1 [Compound 315] | 
3 | 98.2% | 43.8% | 75.1% | 93% | N#CN1CC[C@@H](C(=O)Nc2nc3c(s2)CN(C(=O)c2cnn(-c4ccc(C(F)(F)F)cc4)c2)CC3)C1 [Compound 314] | 
4 |  | 64.1% | 84.8% | 97.7% | N#CN1CC[C@@H](C(=O)Nc2nc3c(s2)CN(C(=O)c2cccc(-c4ncon4)c2)CC3)C1 [Compound 381] | inhibition at 1.25 µM (PARK7 [2]; FP reagent JYQ-107): 93.4%
5 | 93.7% | 50.5% | 73.9% | 93.7% | CN(CC1CC1)c1ccc(C(F)(F)F)cc1C(=O)N1CCc2nc(NC(=O)[C@@H]3CCN(C#N)C3)sc2C1 [Compound 304] | 
6 |  | 57.7% | 79.9% | 95.9% | CC1CCCCN1S(=O)(=O)c1ccccc1C(=O)N1CCc2nc(NC(=O)[C@@H]3CCN(C#N)C3)sc2C1 (some centres unmarked) [Compound 386] | inhibition at 1.25 µM (PARK7 [2]; FP reagent JYQ-107): 94.5%
7 | 97.5% | 48.1% | 76% | 93% | COc1ccccc1-c1cc(C(=O)N2CCc3nc(NC(=O)[C@@H]4CCN(C#N)C4)sc3C2)n[nH]1 [Compound 293] | 

The next lines start with the molecule.

Row | SMILES | inhibition at 1.25 µM (PARK7 [2]) | inhibition at 0.25 µM (PARK7 [3]; crude compounds, 0.25 µM) | inhibition at 0.5 µM (PARK7 [3]; [4]) | inhibition at 1 µM (PARK7 [3]; crude compounds) | further results
8 | N#CN1CC[C@@H](C(=O)Nc2nc3c(s2)CN(C(=O)c2cccc(S(=O)(=O)N4CCN(C(=O)Cn5cc(COCCOCCOCCNc6cccc7c6C(=O)N(C6CCC(=O)NC6=O)C7=O)nn5)CC4)c2)CC3)C1 (some centres unmarked) [JYQ-188] |  |  |  |  | PARK7 degradation (PARK7 [1]; 8 h): No degradation of PARK7 was observed
9 | N#CN1CC[C@@H](C(=O)Nc2nc3c(s2)CN(C(=O)c2cccc(S(=O)(=O)N4CCN(C(=O)Cn5cc(COCCOCCNc6cccc7c6C(=O)N(C6CCC(=O)NC6=O)C7=O)nn5)CC4)c2)CC3)C1 (some centres unmarked) [JYQ-187] |  |  |  |  | PARK7 degradation (PARK7 [1]; 8 h): No degradation of PARK7 was observed
10 | N#CN1CC[C@@H](C(=O)Nc2nc3c(s2)CN(C(=O)c2cccc(Cn4ccnc4)c2)CC3)C1 [Compound 215] | 91.5% | 52.1% | 78.4% | 93.3% | 
11 | N#CN1CC[C@@H](C(=O)Nc2nc3c(s2)CN(C(=O)Cc2cnn(-c4ccccc4)n2)CC3)C1 [Compound 217] | 78.9% | 55.5% | 85.4% | 94.3% | 
12 | N#CN1CC[C@@H](C(=O)Nc2nc3c(s2)CN(C(=O)c2cc(-c4ccco4)on2)CC3)C1 [Compound 139] | 91.5% | 58.2% | 80.9% | 94.3% | 
13 | N#CN1CC[C@@H](C(=O)Nc2nc3c(s2)CNCC3)C1 [cyanimide amine precursor, (R)-1-cyano-N-(4,5,6,7-tetrahydrothiazolo[5,4-c]pyridin-2-yl)pyrrolidine-3-carboxamide] |  |  |  |  | inhibition at 1 µM (PARK7 [2]; read-out: % inhibition in HTS): ~40%; inhibition at 0.25 µM (PARK7 [3]): 3%; inhibition at 0.5 µM (PARK7 [3]; read-out: % inhibition 0.5 μM): 20%
14 | N#CN1CC[C@@H](C(=O)Nc2nc3c(s2)CN(C(=O)c2cccc(COc4cccc(F)c4)c2)CC3)C1 [Compound 110] | 94% | 56.4% | 78.2% | 93.5% | 
15 | Cc1ccc(-c2cc(C(=O)N3CCc4nc(NC(=O)[C@@H]5CCN(C#N)C5)sc4C3)n[nH]2)s1 [Compound 165] | 95.1% | 56.4% | 82.2% | 95.6% | 
16 | N#CN1CC[C@@H](C(=O)Nc2nc3c(s2)CN(C(=O)c2ccc(Cl)c(N4CCCS4(=O)=O)c2)CC3)C1 [Compound 197] | 95.6% | 65.4% | 85.8% | 95% | 
17 | N#CN1CC[C@@H](C(=O)Nc2nc3c(s2)CN(C(=O)c2ccc(-c4ccccn4)nc2)CC3)C1 [Compound 274] | 92.9% | 44.5% | 71.4% | 91.8% | 
18 | CC(C)C[C@@H](C=O)NC(=O)[C@H](CC(C)C)NC(=O)[C@H](CC(C)C)NC(=O)OCc1ccccc1 [MG-132, reference compound] (Cbz-Leu-Leu-Leu-aldehyde) |  |  |  |  | effect of pretreatment on JYQ-194-induced PARK7 degradation (PARK7 [1]): abolished
19 | N#CN1CC[C@@H](C(=O)Nc2nc3c(s2)CN(C(=O)c2cnn(-c4ccc(Br)cc4)c2)CC3)C1 [Compound 219] | 96.4% | 65.1% | 87.4% | 96.7% | 
20 | N#CN1CC[C@@H](C(=O)Nc2nc3c(s2)CN(C(=O)c2cn(C4CCC4)nn2)CC3)C1 [Compound 30] | 89.2% | 52.3% | 75.7% | 93.6% | 
21 | N#CN1CC[C@@H](C(=O)Nc2nc3c(s2)CN(C(=O)c2cccc(S(=O)(=O)NC4CC4)c2)CC3)C1 [Compound 59, (R)-1-Cyano-N-(5-(3-(N-cyclopropylsulfamoyl)benzoyl)-4,5,6,7-tetrahydrothiazolo[5,4-c]pyridin-2-yl)pyrrolidine-3-carboxamide] | 89.7% | 63.1% | 84.4% | 97.5% | inhibition at 0.25 µM (PARK7 [3]; pure compounds, 0.25 µM): 74.8%; inhibition at 1 µM (PARK7 [3]; pure compounds): 93.6%
22 | CCC1(Cn2cc(C(=O)N3CCc4nc(NC(=O)[C@@H]5CCN(C#N)C5)sc4C3)nn2)COC1 [Compound 83] | 92.3% | 47.6% | 73.1% | 92.7% | 
23 | N#CN1CC[C@@H](C(=O)Nc2nc3c(s2)CN(C(=O)c2cc(C4CCCCC4)[nH]n2)CC3)C1 [Compound 164] | 95.1% | 48.2% | 75.6% | 94.4% | 
24 | N#CN1CC[C@@H](C(=O)Nc2nc3c(s2)CN(C(=O)c2cc(-c4ccc(Cl)s4)[nH]n2)CC3)C1 [Compound 64] | 90% | 33.1% | 63.2% | 89.5% | 
25 | Cc1ccc(-c2cc(C(=O)N3CCc4nc(NC(=O)[C@@H]5CCN(C#N)C5)sc4C3)[nH]n2)o1 [Compound 121] | 90.5% | 52% | 77.6% | 93.8% | 
26 | N#CN1CC[C@@H](C(=O)Nc2nc3c(s2)CN(C(=O)c2cccc(S(=O)(=O)NCc4cccs4)c2)CC3)C1 [Compound 11] | 90% | 49.3% | 77.9% | 93.6% | 
27 | N#CN1CC[C@@H](C(=O)Nc2nc3c(s2)CN(C(=O)c2ccc(Oc4cccc(Cl)c4)cn2)CC3)C1 [Compound 268] | 89.7% | 33.9% | 63.1% | 82.8% | 
28 | Nc1cccc2c1C(=O)N(C1CCC(=O)NC1=O)C2=O (centres unmarked) [pomalidomide, reference compound] |  |  |  |  | effect of pretreatment on JYQ-194-induced PARK7 degradation (PARK7 [1]): abolished
29 | COc1ccc(C(=O)N2CCc3nc(NC(=O)[C@@H]4CCN(C#N)C4)sc3C2)cc1S(=O)(=O)NCCCN1CCOCC1 [Compound 242] | 89.2% | 46.8% | 71.2% | 91.4% | 
30 | Cc1ccc([C@@H]2C[C@H]2C(=O)N2CCc3nc(NC(=O)[C@@H]4CCN(C#N)C4)sc3C2)s1 [Compound 188] | 94.2% | 53.3% | 79% | 94.5% | 
31 | N#CN1CC[C@@H](C(=O)Nc2nc3c(s2)CN(C(=O)c2cc(-n4cc(COCCOCCOCCNc5cccc6c5C(=O)N(C5CCC(=O)NC5=O)C6=O)nn4)ccc2F)CC3)C1 (some centres unmarked) [JYQ-195] |  |  |  |  | concentration at which PARK7 degradation starts (PARK7 [1]; 0.1 to 5 μM, 8 h): 2 µM
